pKi: −log10 of the molar value. Some results are limits rather than exact numbers.

Series [1] concerns the target Delta-type opioid receptor (Homo sapiens, UniProt P41143). Briefly: Antagonist activity at human delta opioid receptor expressed in CHO cells assessed as [35S]GTPgammaS binding by SPA. It is filed as functional, cell-based. On the technique in general: GTPγS is a poorly hydrolysed GTP analogue; its binding reports G protein activation.
The target of series [2] is Kappa-type opioid receptor (Homo sapiens, UniProt P41145). Briefly: Antagonist activity at human kappa opioid receptor expressed in CHO cells assessed as [35S]GTPgammaS binding by SPA. It is filed as functional, cell-based.
Kappa-type opioid receptor, sequence (P41145 whole entry): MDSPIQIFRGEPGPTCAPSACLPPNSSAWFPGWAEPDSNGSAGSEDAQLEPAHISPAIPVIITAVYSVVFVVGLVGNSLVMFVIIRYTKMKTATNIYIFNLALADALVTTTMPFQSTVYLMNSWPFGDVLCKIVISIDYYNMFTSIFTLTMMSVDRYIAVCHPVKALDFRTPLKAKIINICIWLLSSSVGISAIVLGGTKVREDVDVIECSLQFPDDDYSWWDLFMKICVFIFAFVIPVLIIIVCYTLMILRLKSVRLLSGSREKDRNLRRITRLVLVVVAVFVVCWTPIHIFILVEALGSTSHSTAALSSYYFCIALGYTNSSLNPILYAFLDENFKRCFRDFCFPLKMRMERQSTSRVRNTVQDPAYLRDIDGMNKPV
For another series, the target named is Mu-type opioid receptor (Homo sapiens, UniProt P35372). Briefly: Antagonist activity at human mu opioid receptor expressed in CHO cells assessed as [35S]GTPgammaS binding by SPA. It is filed as functional, cell-based.
Mu-type opioid receptor, sequence (P35372 whole entry): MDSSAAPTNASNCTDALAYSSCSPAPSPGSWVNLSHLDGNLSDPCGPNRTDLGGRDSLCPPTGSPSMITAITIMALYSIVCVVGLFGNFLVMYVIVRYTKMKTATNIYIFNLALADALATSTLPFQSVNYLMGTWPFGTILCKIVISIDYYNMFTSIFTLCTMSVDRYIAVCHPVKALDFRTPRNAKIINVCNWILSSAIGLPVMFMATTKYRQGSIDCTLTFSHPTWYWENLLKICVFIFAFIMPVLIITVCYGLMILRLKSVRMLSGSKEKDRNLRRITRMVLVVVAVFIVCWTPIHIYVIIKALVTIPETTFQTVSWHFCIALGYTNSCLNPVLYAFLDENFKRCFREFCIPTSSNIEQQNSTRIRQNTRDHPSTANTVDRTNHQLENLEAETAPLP
Series [3] is described as follows: Volume of distribution at steady state in iv dosed Long-Evans rat. The note with it: in vivo, read-out: Vdss. It is filed as ADME, organism-based.
Series [4] can be described thus: Half life in iv dosed Long-Evans rat. It is filed as ADME, organism-based. The note with it: in vivo.
Series [5] is described as follows: Oral bioavailability in Long-Evans rat. It is filed as ADME, organism-based. The note with it: in vivo.
Series [6] is described as follows: Clearance in iv dosed Long-Evans rat. It is filed as ADME, organism-based. The note with it: in vivo.
Another series deals with Rattus norvegicus. Description: Ratio of drug level in po dosed Long-Evans rat. It is filed as ADME, organism-based. The note with it: in vivo.

Delta-type opioid receptor, sequence (P41143 whole entry): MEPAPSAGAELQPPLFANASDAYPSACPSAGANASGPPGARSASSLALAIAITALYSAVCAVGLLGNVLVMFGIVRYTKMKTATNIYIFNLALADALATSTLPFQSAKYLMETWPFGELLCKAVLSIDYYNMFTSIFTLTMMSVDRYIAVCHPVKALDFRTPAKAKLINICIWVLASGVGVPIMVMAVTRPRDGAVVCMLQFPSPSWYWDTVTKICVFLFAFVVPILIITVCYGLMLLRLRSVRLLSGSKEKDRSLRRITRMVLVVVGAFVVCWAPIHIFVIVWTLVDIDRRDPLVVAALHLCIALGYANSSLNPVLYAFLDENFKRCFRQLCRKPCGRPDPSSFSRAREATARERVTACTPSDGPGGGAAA

As for `CC(C)CCNCc1ccc(N2CCCc3cc(C(N)=O)ccc32)cc1`, the pKi in series [1] is 6.50; in series [2] it was 6.30; at Mu-type opioid receptor, 7.10.

As to `CC(C)CNCc1ccc(N2CCCc3cc(C(N)=O)ccc32)cc1`, the pKi is less than 5.40 in series [1], 5.90 in series [2] and 6.20 at Mu-type opioid receptor.

In the case of `NC(=O)c1ccc2c(c1)CCCN2c1ccc(CNCC2CCCCC2)cc1`, the negative-log Ki (pKi) was 6.40 in series [1], 6.50 in series [2] and 7.40 at Mu-type opioid receptor.

For `CCCCCNCc1ccc(N2CCCc3cc(C(N)=O)ccc32)cc1`, the pKi is 6.60 in series [1], 6.00 in series [2] and 7.30 on Mu-type opioid receptor.

`CC(C)(C)CCNCc1ccc(N2CCCc3cc(C(N)=O)ccc32)cc1`: the negative logarithm of the Ki (pKi) was 6.50 in series [1], 6.60 in series [2] and 7.30 on Mu-type opioid receptor.

For `NC(=O)c1ccc2c(c1)CCCN2c1ccc(CNCCC2=CCCCC2)cc1`, the pKi in series [1] was 6.80; in series [2], 6.50; on Mu-type opioid receptor, 7.60. The Vd in series [3] amounted to 1.5 L/kg. Moreover, in series [4], the half-life was 5.34 h. This compound also gave a bioavailability in series [5] of 33%. The clearance in series [6] was determined as 26.5 mL/min/kg. Moreover, the Ratio in the series with Rattus norvegicus came to 0.1.

Regarding `NC(=O)c1ccc2c(c1)CCCN2c1ccc(CNCCc2cccs2)cc1`, the figures for the pKi (in series [1]; in series [2]; at Mu-type opioid receptor) were 6.50, 6.20 and 7.60, respectively.

Turning to `NC(=O)c1ccc2c(c1)CCCN2c1ccc(CNCc2cccc(F)c2)cc1`, the pKi in series [1] was 6.40; in series [2] it was 6.20; at Mu-type opioid receptor, 7.00.

Regarding `NC(=O)c1ccc2c(c1)CCCN2c1ccc(CNCCc2cccc(F)c2)cc1`, the results for the negative logarithm of the Ki (pKi) (in series [1]; in series [2]; at Mu-type opioid receptor) were 6.60, 6.10 and 7.50, respectively.

Consider `CC1(C)CCC(NCc2ccc(N3CCCc4cc(C(N)=O)ccc43)cc2)CC1`, for which the values for the pKi (in series [1]; in series [2]; on Mu-type opioid receptor) were 7.30, 7.20 and 8.00, respectively.

For `NC(=O)c1ccc2c(c1)CCCN2c1ccc(CNC2Cc3ccccc3C2)cc1`, the pKi was 7.40 in series [1], 7.60 in series [2] and 8.30 on Mu-type opioid receptor.

Consider `NC(=O)c1ccc2c(c1)CCCN2c1ccc(CNC2Cc3ccc(F)cc3C2)cc1` (stereo not drawn), for which the results for the negative-log Ki (pKi) (in series [1]; in series [2]; at Mu-type opioid receptor) were 7.10, 6.90 and 7.90, respectively.

On to `NC(=O)c1ccc2c(c1)CCCN2c1ccc(CNCCC2CCOCC2)cc1`, for which the pKi in series [1] is 6.50; in series [2], 6.60; at Mu-type opioid receptor it was 6.90.

On to `NC(=O)c1ccc2c(c1)CCCN2c1ccc(CNC2CCN(C3CCOCC3)CC2)cc1`, for which the pKi (in series [1]; in series [2]; at Mu-type opioid receptor) was less than 5.40 in each case.

As for `NC(=O)c1ccc2c(c1)CCCN2c1cccc(CNCCC2=CCCCC2)c1`, the figures for the pKi (in series [1]; in series [2]; at Mu-type opioid receptor) were 6.70, 5.90 and 7.30, respectively.

Take `NC(=O)c1ccc2c(c1)CCCN2c1cccc(C(=O)NCCC2=CCCCC2)c1`: the figures for the pKi (in series [1]; in series [2]; on Mu-type opioid receptor) were 5.80, less than 5.40 and 5.70, respectively.

Turning to `Cc1cc(N2CCCc3cc(C(N)=O)ccc32)ccc1CNC1Cc2ccccc2C1`, the values for the pKi (in series [1]; in series [2]; at Mu-type opioid receptor) were 6.80, 6.80 and 8.10, respectively.

As for `NC(=O)c1ccc2c(c1)CCCN2c1ccc(CNC2Cc3ccccc3C2)c(F)c1`, the values for the pKi (in series [1]; in series [2]; at Mu-type opioid receptor) were 7.00, 6.70 and 8.10, respectively.

As for `NC(=O)c1ccc2c(c1)CCCN2c1cc(F)c(CNC2Cc3ccccc3C2)c(F)c1`, the pKi in series [1] was 6.50; in series [2], 6.20; at Mu-type opioid receptor, 7.60.

Take `NC(=O)c1ccc2c(c1)CCCN2c1ccc(CNC2Cc3ccccc3C2)c(C(F)(F)F)c1`: the pKi in series [1] was 7.20; in series [2], 6.20; on Mu-type opioid receptor, 7.30.

For `NC(=O)c1ccc2c(c1)CCCN2c1ccc(CNC2Cc3ccccc3C2)c(Cl)c1`, the pKi in series [1] is 7.00; in series [2], 6.70; at Mu-type opioid receptor, 7.80.

Turning to `Cc1cc(CNC2Cc3ccccc3C2)ccc1N1CCCc2cc(C(N)=O)ccc21`, the pKi was 7.90 in series [1], 7.70 in series [2] and 8.80 at Mu-type opioid receptor.

Regarding `Cc1cc(CNCCC2=CCCCC2)ccc1N1CCCc2cc(C(N)=O)ccc21`, the negative logarithm of the Ki (pKi) in series [1] was 7.00; in series [2], 6.70; at Mu-type opioid receptor, 7.90.

As to `Cc1cc(N2CCCc3cc(C(N)=O)ccc32)ccc1CNCCC1=CCCCC1`, the pKi is 6.30 in series [1], 6.20 in series [2] and 7.00 at Mu-type opioid receptor.

As to `C1=C(CCNCc2ccc(N3CCCc4ccccc43)cc2)CCCC1`, the pKi in series [1] was less than 5.40; in series [2] it was less than 5.40; on Mu-type opioid receptor, 6.40.

For the compound `O=C(O)c1ccc2c(c1)CCCN2c1ccc(CNCCC2=CCCCC2)cc1`, the pKi is less than 5.40 in series [1], less than 5.40 in series [2] and less than 5.50 on Mu-type opioid receptor.

The term pKi denotes −log10 of the Ki, conventionally taken in molar units. Broadly, the half-life is the time needed for the level to fall by half in the phase considered. Higher therefore signals slow loss. One may read the bioavailability as dose-corrected exposure relative to a reference, in per cent. Low values mean poor availability, high ones good availability. One may read the clearance as the volume of plasma or blood freed of the substance per unit of time. Higher therefore signals a high capacity for elimination.

These data come from ChEMBL document CHEMBL1641476, “Tetrahydroquinoline derivatives as opioid receptor antagonists” (Bioorg Med Chem Lett, 2011).
